Test results published in EP4582423A1, “NOVEL TRICYCLIC DERIVATIVE COMPOUND AND USES THEREOF” (Hanmi Pharm. Co., Ltd., priority 2022, dated 2024).

system: HCT116 MTAP-/- cells; test: Cell growth inhibition test (SRB staining); type: cell-based; conditions: Homo sapiens, HCT-116, 144 h; HCT116 MTAP-/- cells, 0.64 nM - 2,000 nM, 6 dose points, 6 days, SRB staining, absorbance at 540 nm; read-out: HCT116 MTAP-/- cell growth inhibition (GI50)
Procedure: The synthetic compounds above were tested for cell growth inhibition against HCT116 cells.
HCT116 MTAP-/- (homozygous knockout of MTAP gene in HCT116 MTAP-WT cells by CRISPER/Cas9 method) cells were maintained in RPMI1640 medium containing 10 % FBS and 1 % penicillin-streptomycin. Approximately 5×10^2 cells were seeded in a 96-well plate and treated with a test compound. (0.64 nM - 2,000 nM, 6 dose points for HCT116 MTAP-/- cells for 5x and 6 days) cell growth was measured by SRB staining and absorbance was detected at 540 nm on a Synergy™ NEO microplate reader. The 50 % growth inhibition value (GI50) of the cell line was calculated using GraphPad Prism V9 software.

Row | Structure (SMILES) | GI50 [µM]
1 | COc1ccc(Cc2nc3c(=O)n(-c4cccnc4C)c4ccccc4c3n2C)cc1 [Compound 22, 2-(4-methoxybenzyl)-1-methyl-5-(2-methylpyridin-3-yl)-1,5-dihydro-4H-imidazo[4,5-c]quinolin-4-one] | 0.5 to 1
2 | Cc1ncccc1-n1c(=O)c2nc(Sc3ccc(F)cc3)n(C)c2c2ccc(C(F)(F)F)nc21 [Compound 60, 2-((4-fluorophenyl)thio)-1-methyl-5-(2-methylpyridin-3-yl)-7-(trifluoromethyl)-1,5-dihydro-4H-imidazo[4,5-c][1,8]naphthyridin-4-one] | 0.1 to 0.5
3 | COc1ccc(N(C)c2nc3c(=O)n(-c4ccccc4)c4cc(Cl)ccc4c3n2C)cc1 [Compound 41, 7-chloro-2-((4-methoxyphenyl)(methyl)amino)-1-methyl-5-phenyl-1,5-dihydro-4H-imidazo[4,5-c]quinolin-4-one] | > 1
4 | COc1ccc(Sc2nc3c(=O)n(-c4cccnc4C)c4cc(Cl)ccc4c3n2C)cc1 [Compound 35, 7-chloro-2-((4-methoxyphenyl)thio)-1-methyl-5-(2-methylpyridin-3-yl)-1,5-dihydro-4H-imidazo[4,5-c]quinolin-4-one] | < 0.1
5 | Cc1ncccc1-n1c(=O)c2nc(Cc3ccc4c(c3)OCO4)n(C)c2c2ccc(Cl)cc21 [Compound 29, 2-(benzo[d][1,3]dioxol-5-ylmethyl)-7-chloro-1-methyl-5-(2-methylpyridin-3-yl)-1,5-dihydro-4H-imidazo[4,5-c]quinolin-4-one] | < 0.1
6 | COc1ccc(Cc2nc3c(=O)n(-c4ccccc4Cl)c4cc(Cl)ccc4c3n2C)cc1 [Compound 26, 7-chloro-5-(2-chlorophenyl)-2-(4-methoxybenzyl)-1-methyl-1,5-dihydro-4H-imidazo[4,5-c]quinolin-4-one] | 0.1 to 0.5
7 | COc1ccc(Cc2nc3c(=O)n(-c4cccnc4C)c4cc(N5CCCC5)ccc4c3n2C)cc1 [Compound 50, 2-(4-methoxybenzyl)-1-methyl-5-(2-methylpyridin-3-yl)-7-(pyrrolidin-1-yl)-1,5-dihydro-4H-imidazo[4,5-c]quinolin-4-one] | > 1
8 | Cc1ncccc1-n1c(=O)c2nc(Cc3ccc(OC(F)F)cc3)n(C)c2c2ccc(Cl)cc21 [Compound 33, 7-chloro-2-(4-(difluoromethoxy)benzyl)-1-methyl-5-(2-methylpyridin-3-yl)-1,5-dihydro-4H-imidazo[4,5-c]quinolin-4-one] | < 0.1
9 | CCc1ccc2c3c(nc(Cc4ccc(OC(F)F)cc4)n3C)c(=O)n(-c3cccnc3C)c2n1 [Compound 65, 2-(4-(difluoromethoxy)benzyl)-7-ethyl-1-methyl-5-(2-methylpyridin-3-yl)-1,5-dihydro-4H-imidazo[4,5-c][1,8]naphthyridin-4-one] | < 0.1
10 | COc1ccc(S(=O)(=O)c2nc3c(=O)n(-c4ccccc4)c4cc(Cl)ccc4c3n2C)cc1 [Compound 19, 7-chloro-2-((4-methoxyphenyl)sulfonyl)-1-methyl-5-phenyl-1,5-dihydro-4H-imidazo[4,5-c]quinolin-4-one] | 0.5 to 1
11 | COc1ccc(Cc2nc3c(=O)n(-c4cccnc4C)c4cc(O)ccc4c3n2C)cc1 [Compound 43, 7-Hydroxy-2-(4-methoxybenzyl)-1-methyl-5-(2-methylpyridin-3-yl)-1,5-dihydro-4H-imidazo[4,5-c]quinolin-4-one] | > 1
12 | CNc1ccc2c3c(nc(Cc4ccc(OC)cc4)n3C)c(=O)n(-c3cccnc3C)c2c1 [Compound 53, 2-(4-methoxybenzyl)-1-methyl-7-(methylamino)-5-(2-methylpyridin-3-yl)-1,5-dihydro-4H-imidazo[4,5-c]quinolin-4-one] | < 0.1
13 | COc1ccc(Cc2nc3c(=O)n(-c4cccnc4C)c4cc(C5CC5)ccc4c3n2C)cc1 [Compound 46, 7-Cyclopropyl-2-(4-methoxybenzyl)-1-methyl-5-(2-methylpyridin-3-yl)-1,5-dihydro-4H-imidazo[4,5-c]quinolin-4-one] | < 0.1
14 | Cn1c(Cc2ccc(Cl)cc2)nc2c(=O)n(-c3ccccc3)c3cc(Cl)ccc3c21 [Compound 6, 7-chloro-2-(4-chlorobenzyl)-1-methyl-5-phenyl-1,5-dihydro-4H-imidazo[4,5-c]quinolin-4-one] | 0.1 to 0.5
15 | COc1ccc(Cc2nc3c(=O)n(-c4ccc(F)c(Cl)c4)c4cc(Cl)ccc4c3n2C)cc1 [Compound 17, 7-chloro-5-(3-chloro-4-fluorophenyl)-2-(4-methoxybenzyl)-1-methyl-1,5-dihydro-4H-imidazo[4,5-c]quinolin-4-one] | > 1
16 | COc1cccc(Cc2nc3c(=O)n(-c4ccccc4)c4cc(Cl)ccc4c3n2C)c1 [Compound 4, 7-chloro-2-(3-methoxybenzyl)-1-methyl-5-phenyl-1,5-dihydro-4H-imidazo[4,5-c]quinolin-4-one] | < 0.1

Row | Structure (SMILES) | GI50 [µM]
17 | COc1ccc(Cc2nc3c(=O)n(-c4cccnc4C)c4nc(OC)ccc4c3n2C)cc1 [Compound 64, 7-methoxy-2-(4-methoxybenzyl)-1-methyl-5-(2-methylpyridin-3-yl)-1,5-dihydro-4H-imidazo[4,5-c][1,8]naphthyridin-4-one] | < 0.1
18 | COc1ccc(Cc2nc3c(=O)n(-c4cccnc4C)c4cc(N)ccc4c3n2C)cc1 [Compound 52, 7-amino-2-(4-methoxybenzyl)-1-methyl-5-(2-methylpyridin-3-yl)-1,5-dihydro-4H-imidazo[4,5-c]quinolin-4-one] | 0.5 to 1
19 | COc1ccc(Cc2nc3c(=O)n(-c4ccc(OC(F)F)cc4)c4nc(C(F)(F)F)ccc4c3n2C)cc1 [Compound 56, 5-(4-(Difluoromethoxy)phenyl)-2-(4-methoxybenzyl)-1-methyl-7-(trifluoromethyl)-1,5-dihydro-4H-imidazo[4,5-c][1,8]naphthyridin-4-one] | > 1
20 | COc1ccc(Cc2nc3c(=O)n(-c4cccnc4C)c4cc(Cl)ccc4c3n2C)cc1 [Compound 21, 7-chloro-2-(4-methoxybenzyl)-1-methyl-5-(2-methylpyridin-3-yl)-1,5-dihydro-4H-imidazo[4,5-c]quinolin-4-one] | < 0.1
21 | C#Cc1ccc2c3c(nc(Cc4ccc(OC)cc4)n3C)c(=O)n(-c3cccnc3C)c2c1 [Compound 47, 7-ethynyl-2-(4-methoxybenzyl)-1-methyl-5-(2-methylpyridin-3-yl)-1,5-dihydro-4H-imidazo[4,5-c]quinolin-4-one] | < 0.1
22 | CCOc1ncc2c3c(nc(Cc4ccc(OC)cc4)n3C)c(=O)n(-c3cccnc3C)c2n1 [Compound 62, 7-ethoxy-2-(4-methoxybenzyl)-1-methyl-5-(2-methylpyridin-3-yl)-1,5-dihydro-4H-imidazo[4',5':4,5]pyrido[2,3-d]pyrimidin-4-one] | > 1
23 | COc1ccc(Cc2nc3c(=O)n(-c4cccnc4C(F)(F)F)c4cc(Cl)ccc4c3n2C)cc1 [Compound 23, 7-chloro-2-(4-methoxybenzyl)-1-methyl-5-(2-(trifluoromethyl)pyridin-3-yl)-1,5-dihydro-4H-imidazo[4,5-c]quinolin-4-one] | 0.1 to 0.5
24 | COc1ccc(Cc2nc3c(=O)n(-c4ccc(F)cc4)c4cc(Cl)ccc4c3n2C)cc1 [Compound 32, 7-chloro-5-(4-fluorophenyl)-2-(4-methoxybenzyl)-1-methyl-1,5-dihydro-4H-imidazo[4,5-c]quinolin-4-one] | > 1
25 | COc1ccc(Cc2nc3c(=O)n(-c4cccnc4C4CC4)c4cc(Cl)ccc4c3n2C)cc1 [Compound 24, 7-chloro-5-(2-cyclopropylpyridin-3-yl)-2-(4-methoxybenzyl)-1-methyl-1,5-dihydro-4H-imidazo[4,5-c]quinolin-4-one] | 0.1 to 0.5
26 | Cc1ncccc1-n1c(=O)c2nc(Sc3ccc(F)cc3)n(C)c2c2ccc(Cl)cc21 [Compound 36, 7-chloro-2-((4-fluorophenyl)thio)-1-methyl-5-(2-methylpyridin-3-yl)-1,5-dihydro-4H-imidazo[4,5-c]quinolin-4-one] | < 0.1
27 | C=Cc1ccc2c3c(nc(Cc4ccc(OC)cc4)n3C)c(=O)n(-c3cccnc3C)c2c1 [Compound 44, 2-(4-methoxybenzyl)-1-methyl-5-(2-methylpyridin-3-yl)-7-vinyl-1,5-dihydro-4H-imidazo[4,5-c]quinolin-4-one] | < 0.1
28 | COc1ccc2c3c(nc(Cc4ccc(OC(F)F)cc4)n3C)c(=O)n(-c3cccnc3C)c2n1 [Compound 63, 2-(4-(difluoromethoxy)benzyl)-7-methoxy-1-methyl-5-(2-methylpyridin-3-yl)-1,5-dihydro-4H-imidazo[4,5-c][1,8]naphthyridin-4-one] | < 0.1
29 | Cc1ncccc1-n1c(=O)c2nc(Sc3ccc4c(c3)OCO4)n(C)c2c2ccc(Cl)cc21 [Compound 38, 2-(benzo[d][1,3]dioxol-5-ylthio)-7-chloro-1-methyl-5-(2-methylpyridin-3-yl)-1,5-dihydro-4H-imidazo[4,5-c]quinolin-4-one] | < 0.1
30 | COc1ccc(Oc2nc3c(=O)n(-c4ccccc4)c4cc(Cl)ccc4c3n2C)cc1 [Compound 42, 7-chloro-2-(4-methoxyphenoxy)-1-methyl-5-phenyl-1,5-dihydro-4H-imidazo[4,5-c]quinolin-4-one] | > 1
31 | COc1ccc(Cc2nc3c(=O)n(-c4ccccc4)c4cc(Cl)ccc4c3n2C)cc1 [Compound 2, 7-chloro-2-(4-methoxybenzyl)-1-methyl-5-phenyl-1,5-dihydro-4H-imidazo[4,5-c]quinolin-4-one] | < 0.1
32 | COc1ccc(Cc2nc3c(=O)n(-c4ccc(Cl)c(F)c4)c4cc(Cl)ccc4c3n2C)cc1 [Compound 16, 7-chloro-5-(4-chloro-3-fluorophenyl)-2-(4-methoxybenzyl)-1-methyl-1,5-dihydro-4H-imidazo[4,5-c]quinolin-4-one] | > 1
